Source: article PMC12095788 (Communications Chemistry, 2025)

Tests used:
[1] = target: T1, Gal4-Nurr1 I500F (Homo sapiens, UniProt P43354, I500F); experiment: Gal4-Nurr1 hybrid reporter gene assay, mutant I500F; assay type: cell-based; settings: vs wt
T1 construct: expressed in transfected cells; host or cells: HEK293T

[2] = target: T2, Gal4-Nurr1 H372F (Homo sapiens, UniProt P43354, H372F); experiment: Gal4-Nurr1 hybrid reporter gene assay, mutant H372F; assay type: cell-based; settings: vs wt
T2 construct: expressed in transfected cells; host or cells: HEK293T

[3] = target: T3, Gal4-Nurr1 I500W/V373W (Homo sapiens, UniProt P43354, I500W/V373W); experiment: Gal4-Nurr1 hybrid reporter gene assay, double mutant I500W/V373W; assay type: cell-based; settings: fold reporter activation vs. DMSO
T3 construct: expressed in transfected cells; host or cells: HEK293T

[4] = target: T4, Nurr1 LBD - CoREST (Homo sapiens, UniProt P43354); experiment: HTRF co-regulator recruitment assay, CoREST; assay type: biochemical; settings: biotinylated CoREST peptide, sGFP-Nurr1 LBD
T4 construct: sGFP-Nurr1[26]; LBD as FRET acceptor; made in house
Excerpt: (§1) Homogeneous time-resolved fluorescence energy transfer (HTRF) experiments were used to study the recruitment of co-regulator peptides to the Nurr1-LBD in the presence or absence of test compounds. Terbium cryptate as streptavidin conjugate (Tb-SA; Cisbio Bioassays, Codolet, France) was used as FRET donor for stable coupling to biotinylated recombinant Nurr1 LBD protein. Fluorescein-labeled co-regulator peptides were used as FRET acceptors (peptide sequences are reported in Supplementary Tab. 4). […] Recruitment of CoREST and Lmx1b peptides was studied using biotin-labeled peptides for stable coupling to Tb-SA as FRET donor and sGFP-Nurr1[26] LBD as FRET acceptor. […] Experiments were carried out in 384 well format using white flat bottom small volume polystyrol microtiter plates (Greiner Bio-One, Frickenhausen, Germany). After 2 h incubation at rt, fluorescence intensities (FI) after excitation at 340 nm were recorded at 520 nm for fluorescein acceptor fluorescence and 620 nm for Tb-SA donor fluorescence on a SPARK plate reader (Tecan Group Ltd.). FI520 nm was divided by FI620 nm and multiplied with 10,000 to give a dimensionless HTRF signal.

[5] = target: T5, Nurr1 LBD (wt) (Homo sapiens, UniProt P43354); experiment: ITC ligand binding to Nurr1 wt LBD; settings: for n ligand binding to Nurr1 LBD: ITC stoichiometry; for n ligand binding to Nurr1 LBD / TΔS ligand binding to Nurr1 LBD: wt LBD
Target sequence in this assay (P43354 360-595 limits assumed): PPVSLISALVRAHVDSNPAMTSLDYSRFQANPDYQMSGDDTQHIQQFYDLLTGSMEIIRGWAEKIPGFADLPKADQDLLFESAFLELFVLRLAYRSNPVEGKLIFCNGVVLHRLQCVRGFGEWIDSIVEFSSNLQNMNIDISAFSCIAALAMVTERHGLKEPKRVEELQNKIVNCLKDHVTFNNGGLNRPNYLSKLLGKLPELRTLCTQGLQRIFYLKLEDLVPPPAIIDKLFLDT

[6] = target: T6, Gal4-Nurr1 (wt human Nurr1 LBD) (Homo sapiens, UniProt P43354); experiment: Gal4-Nurr1 hybrid reporter gene assay (wild-type); assay type: cell-based
T6 construct: expressed in transfected cells; host or cells: HEK293T

[7] = target: full-length human Nurr1 (NBRE) (Homo sapiens, UniProt P43354); experiment: Full-length Nurr1 reporter gene assay, monomer response element (NBRE); assay type: cell-based
[8] = target: full-length human Nurr1 (NurRE) (Homo sapiens, UniProt P43354); experiment: Full-length Nurr1 reporter gene assay, homodimer response element (NurRE); assay type: cell-based
[9] = target: full-length human Nurr1 / RXR heterodimer (DR5) (Homo sapiens, UniProt P43354); experiment: Full-length Nurr1 reporter gene assay, RXR-heterodimer response element (DR5); assay type: cell-based
[10] = target: T7, Nurr1 LBD - NCOR1 (Homo sapiens, UniProt P43354); experiment: HTRF co-regulator recruitment assay, NCOR1; assay type: biochemical; settings: fluorescein labeled corepressor peptide, read-out: IC50 NCOR1 displacement from Nurr1 LBD
T7 construct: a plasmid construct encoding Nurr1 (aa 364-598) in a pMal vector system; MBP (cleaved yes); made in house; host or cells: E. coli BL21-R3-pRARE2
Excerpt: as §1

[11] = target: T8, Nurr1 LBD - SMRT (Homo sapiens, UniProt P43354); experiment: HTRF co-regulator recruitment assay, SMRT; assay type: biochemical; settings: fluorescein labeled corepressor peptide, read-out: IC50 SMRT displacement from Nurr1 LBD
T8 construct: a plasmid construct encoding Nurr1 (aa 364-598) in a pMal vector system; MBP (cleaved yes); made in house; host or cells: E. coli BL21-R3-pRARE2
Excerpt: as §1

[12] = target: T9, Nurr1 LBD - PIASγ (Homo sapiens, UniProt P43354); experiment: HTRF co-regulator recruitment assay, PIASγ; assay type: biochemical; settings: fluorescein labeled corepressor peptide, read-out: IC50 PIASγ displacement from Nurr1 LBD
T9 construct: a plasmid construct encoding Nurr1 (aa 364-598) in a pMal vector system; MBP (cleaved yes); made in house; host or cells: E. coli BL21-R3-pRARE2
Excerpt: as §1

[13] = target: T10, Nurr1 LBD - NRIP (Homo sapiens, UniProt P43354); experiment: HTRF co-regulator recruitment assay, NRIP; assay type: biochemical; settings: fluorescein labeled coactivator peptide, read-out: IC50 NRIP displacement from Nurr1 LBD
T10 construct: a plasmid construct encoding Nurr1 (aa 364-598) in a pMal vector system; MBP (cleaved yes); made in house; host or cells: E. coli BL21-R3-pRARE2
Excerpt: as §1

[14] = target: T11, Nurr1 LBD - NCoA6 (Homo sapiens, UniProt P43354); experiment: HTRF co-regulator recruitment assay, NCoA6; assay type: biochemical; settings: fluorescein labeled coactivator peptide, read-out: IC50 NCoA6 displacement from Nurr1 LBD
T11 construct: a plasmid construct encoding Nurr1 (aa 364-598) in a pMal vector system; MBP (cleaved yes); made in house; host or cells: E. coli BL21-R3-pRARE2
Excerpt: as §1

[15] = target: T12, Nurr1 LBD - Lmx1b (Homo sapiens, UniProt P43354); experiment: HTRF co-regulator recruitment assay, Lmx1b; assay type: biochemical; settings: biotinylated Lmx1b peptide, sGFP-Nurr1 LBD
T12 construct: sGFP-Nurr1[26]; LBD as FRET acceptor; made in house
Excerpt: as §1

[16] = target: T13, Nurr1 LBD - RXRα LBD heterodimer (Homo sapiens, UniProt P43354); experiment: ITC Nurr1-RXR dimerization; settings: ITC stoichiometry, ligand 200 µM
[17] = target: T13, Nurr1 LBD - RXRα LBD heterodimer; experiment: HTRF Nurr1-RXRα heterodimer formation assay; assay type: biochemical; set-up: a plasmid construct encoding Nurr1 (aa 364-598) in a pMal vector system; MBP (cleaved yes); made in house; host or cells: E.coli BL21-R3-pRARE2 (biotinylated Nurr1 LBD)
Description: Assay solutions were prepared in HTRF assay buffer supplemented with 0.1% (w/v) CHAPS as well as 1% DMSO with test compounds at fixed concentrations or DMSO alone as negative control (apo). […] Samples were equilibrated at RT for 2 h before FI520 and FI620 were recorded after excitation at 340 nm, and the HTRF signal was calculated as described above.

[18] = target: T5, Nurr1 LBD (wt); experiment: Binding kinetics by biolayer interferometry (BLI); set-up: For generation of biotinylated Nurr1 a plasmid construct encoding Nurr1 (aa 364-598) in a pMal vector system; MBP (cleaved yes); made in house; host or cells: E.coli BL21-R3-pRARE2; settings: read-out: dissociation rate koff
Target sequence in this assay (P43354 364-598): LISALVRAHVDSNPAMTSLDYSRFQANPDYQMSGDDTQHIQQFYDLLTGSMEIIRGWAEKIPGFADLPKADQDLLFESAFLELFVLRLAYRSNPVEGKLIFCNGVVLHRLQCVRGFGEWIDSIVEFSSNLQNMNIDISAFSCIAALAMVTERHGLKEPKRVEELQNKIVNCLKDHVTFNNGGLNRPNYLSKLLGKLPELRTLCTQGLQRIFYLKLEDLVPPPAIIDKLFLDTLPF
Description: BLI measurements were conducted using the Octet R8 instrument (Sartorius). Nurr1 was enzymatically biotinylated using BirA, and Super Streptavidin (SSA) sensors were used to capture the biotinylated Nurr1. Prior to the assay, SSA sensors were pre-soaked for 10 minutes in a buffer containing 20 mM HEPES (pH 7.4), 150 mM NaCl, 0.01% Tween-20, and 0.5% DMSO. The sensors were then loaded with 2 μM biotinylated Nurr1 for 10 min, reaching a response of ~10 nm. Free biotin sites were blocked by incubating the sensors with 20 μg/ml biocytin for 1 minute. After quenching, the sensors were washed for 20 min with HEPES buffer and equilibrated for 5 min in the same buffer supplemented with 1% PEG3K. The binding of compounds was monitored for 120 s, followed by a 120 s dissociation phase. Two control experiments were conducted: one with sensors coated with the protein but without the compound, and the other with uncoated biosensors exposed to the compound at corresponding concentrations. These controls were used to correct for non-specific binding and baseline interference.

T13 sequence (P43354 364-598, one chain of several): as the sequence (P43354 364-598) above
T4 sequence (P43354 360-595 limits assumed): as the sequence (P43354 360-595 limits assumed) above
T6 sequence (P43354 360-595 limits assumed): as above
Sequence of full-length human Nurr1 / RXR heterodimer (DR5) (P43354 whole entry, the tested form may be a part, one chain of several): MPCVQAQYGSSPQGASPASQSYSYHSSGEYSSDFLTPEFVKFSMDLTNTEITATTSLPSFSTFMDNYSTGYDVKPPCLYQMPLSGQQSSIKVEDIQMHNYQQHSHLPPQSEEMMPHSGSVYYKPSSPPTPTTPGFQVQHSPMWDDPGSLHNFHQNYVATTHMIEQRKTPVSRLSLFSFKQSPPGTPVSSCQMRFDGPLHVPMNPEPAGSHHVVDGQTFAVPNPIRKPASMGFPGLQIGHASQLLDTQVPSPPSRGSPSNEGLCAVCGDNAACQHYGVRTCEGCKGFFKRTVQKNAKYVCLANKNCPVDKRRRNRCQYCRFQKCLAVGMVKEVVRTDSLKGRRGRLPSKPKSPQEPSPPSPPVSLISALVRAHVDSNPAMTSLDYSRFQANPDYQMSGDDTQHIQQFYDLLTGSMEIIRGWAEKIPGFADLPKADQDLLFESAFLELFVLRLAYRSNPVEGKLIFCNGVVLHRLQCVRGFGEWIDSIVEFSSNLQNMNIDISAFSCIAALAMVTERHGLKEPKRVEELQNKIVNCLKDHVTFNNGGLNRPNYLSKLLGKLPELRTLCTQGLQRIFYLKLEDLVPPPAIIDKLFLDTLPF
Sequence of full-length human Nurr1 (NBRE) (P43354 whole entry): as the sequence (P43354 whole entry, the tested form may be a part, one chain of several) above
Sequence of full-length human Nurr1 (NurRE) (P43354 whole entry): as the sequence (P43354 whole entry, the tested form may be a part, one chain of several) above
T2 sequence (P43354 360-595 H372F limits assumed): as the sequence (P43354 360-595 limits assumed) above, with H13F counted along it
T8 sequence (P43354 364-598): as the sequence (P43354 364-598) above
T11 sequence (P43354 364-598): as above
T9 sequence (P43354 364-598): as above
T10 sequence (P43354 364-598): as above
T7 sequence (P43354 364-598): as above
T1 sequence (P43354 360-595 I500F limits assumed): as the sequence (P43354 360-595 limits assumed) above, with I141F counted along it
T3 sequence (P43354 360-595 V373W/I500W limits assumed): as the sequence (P43354 360-595 limits assumed) above, with V14W, I141W counted along it
T12 sequence (P43354 360-595 limits assumed): as the sequence (P43354 360-595 limits assumed) above
T12 sequence (O60663 382-402 partner limits assumed): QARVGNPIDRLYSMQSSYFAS

CC(C)n1c(/C=C/C(O)CC(O)CC(=O)O)c(-c2ccc(F)cc2)c2ccccc21 (stereo not shown) [fluvastatin, reference compound]
effect of I500F mutation on Nurr1 activation by the ligand [1]: did not alter | effect of H372F mutation on Nurr1 activation by the ligand [2]: did not alter | activation of Gal4-Nurr1 double mutant I500W/V373W [3]: responded | effect on CoREST recruitment to Nurr1 LBD [4]: slightly reduced | n ligand binding to Nurr1 LBD [5]: 0.90±0.04 | TΔS ligand binding to Nurr1 LBD ([5]; ITC): 3.7 ± 0.3 kcal/mol

O=C(O)C1=C(C(=O)Nc2ccc(-c3ccccc3OCc3ccccc3)cc2F)CCC1 [compound 1, 2-{[2’-(Benzyloxy)-3-fluoro-[1,1’-biphenyl]-4-yl]carbamoyl}cyclopent-1-ene-1-carboxylic acid]
EC50 ([6]; HEK293T, Gal4 hybrid reporter, wt): 30 ± 10 nM | potency on Gal4-Nurr1 relative to vidofludimus ([6]; higher potency than vidofludimus): 10 fold | EC50 [7]: 60 ± 10 nM | EC50 [8]: 70 ± 10 nM | EC50 [9]: 60 ± 10 nM | IC50 [10]: 4000 ± 1000 nM | IC50 [11]: 5000 ± 2000 nM | IC50 [12]: 12000 ± 2000 nM | IC50 [13]: 7000 ± 2000 nM | IC50 [14]: 7000 ± 2000 nM | effect on CoREST recruitment to Nurr1 LBD [4]: slightly reduced | effect on Lmx1b recruitment to Nurr1 LBD [15]: no effect | n Nurr1 LBD – RXR LBD [16]: 0.98±0.09 | Kd [5]: 110 nM | n ligand binding to Nurr1 LBD [5]: 1.00±0.04 | TΔS ligand binding to Nurr1 LBD ([5]; ITC): -5.5 ± 1.8 kcal/mol | affinity to Nurr1 LBD relative to vidofludimus ([5]; enhanced affinity vs vidofludimus, ITC): 7 fold | effect on Nurr1-RXR heterodimerization [17]: weakened | koff [18]: 0.0224 s⁻¹
